Key:
[1] = 101 kPa, Liquid
[2] = xn = mol fraction of the nth substance listed; conditions: 101 kPa, Liquid, x1 = 1

CCn1cc[n+](C)c1.F[B-](F)(F)F [1-ethyl-3-methylimidazolium tetrafluoroborate]
[1]
Conditions	mass density [kg/m3]	viscosity [mPa·s]
293.15 K	1340.7	45.29
298.15 K	1336.7	37.19
303.15 K	1332.9	31.36
308.15 K	1329.6	25.56
313.15 K	1325.9	21.54
318.15 K	1322.2	18.84
323.15 K	1319.5	15.9

O [water] + CCn1cc[n+](C)c1.F[B-](F)(F)F
[2]
Conditions	mass density [kg/m3]	viscosity [mPa·s]
293.15 K	–	1.002
298.15 K	–	0.89
303.15 K	–	0.798
308.15 K	–	0.719
313.15 K	–	0.653
318.15 K	990.1	0.599
323.15 K	988	0.547

From the NIST ThermoML archive (doi:10.1021/je030191w)
